Values belong to the compound of their own block, whether it stands above or below them.
Assays:
serum cholesterol = assay: Subacute study in cholesterol-fed rats, IP: serum cholesterol; format: in vivo; conditions: IP once-a-day for seven days
[1] = Tissue distribution and pharmacokinetics following IP administration to normal rats; format: in vivo, SD rats; conditions: 10 mg/kg IP
Text: At pre-selected time points following dosing, the rats were anesthetized using iso-fluorane and the peritoneal cavity was then opened and a blood sample was obtained from the abdominal vena cava. In addition, liver, kidney, and heart were excised and immersed in 3 volumes of cold 60% acetonitrile. The blood samples were briefly centrifuged and the plasma fraction was then extracted with 1.5 volumes of methanol, processed, and analyzed by LC-UV as described in Example G. The frozen liver, kidney, and heart tissue were homogenized in 60% v/v acetonitrile, centrifuged, and then analyzed by LC-UV. Pharmacokinetic parameters and AUC of the plasma and tissue concentration-time profiles were determined noncompartmentally by WinNonLin.

heart mGPDH activity = assay: Subacute study in normal rats, continuous infusion: heart mGPDH activity; format: in vivo, rats (Sprague-Dawley); conditions: continuous infusion 1 mg/kg/day
Text: (§1) Efficacy endpoints include serum cholesterol, liver mitochondrial glycerol phosphate dehydrogenase (mGPDH) activity and the expression of relevant liver genes (e.g., the LDL-receptor, apoB, cpt-1, spot14 and apoAI). Safety parameters include heart weight, heart rate, heart mGPDH activity, the expression and key genes involved in cardiac structure and function (e.g., Serca2, HCN2, Kv1.5, MHCα, MHCβ, Alpha1c), and standard plasma chemistry analysis (liver enzymes, electrolytes, creatinine). Endocrine effects are monitored by analysis of serum thyroid stimulating hormone (TSH). [Taylor et al., Mol Pharmacol 52(3): 542-7 (1997); Weitzel et al., Eur J Biochem 268(14):4095-4103 (2001)]
(§2) Methods: mGPDH activity was analyzed in isolated mitochondria using 2-(4-iodophenyl)-3-(4-nitrophenyl)-5-phenyl tetrazolium chloride as the terminal electron acceptor (Gardner R S, Analytical Biochemistry 59:272 (1974)). Commercially available GPDH was used in each assay as a standard (Sigma, St. Louis, Mo.). Changes in levels of mRNA for liver and heart genes are analyzed using reverse transcriptase followed by real-time PCR analysis. The analysis is performed using an iCycler instrument (Biorad) and appropriate primers by means of standard methodology [e.g., Schwab D A et al. (2000) Life Sciences 66: 1683-94]. The amounts of mRNA are normalized to an internal control, typically, cyclophilin. Serum TSH is measured using an enzyme immunoassay (EIA) kit designed for rat TSH (Amersham Pharmacia Biotech, Arlington Heights, Ill.).
(§3) Normal rats (Sprague-Dawley) were maintained on a standard diet. […] The compounds were brought up to an appropriate volume using PBS and BSA to maintain solubility within the pump. The compounds were chemically stable in the excipient at 37° C. for 7 days.
(§4) Values are expressed as percent of control. (Table 4)

[2] = test system: liver mitochondrial glycerol phosphate dehydrogenase (mGPDH) activity; assay: Subacute study in normal rats, continuous infusion: liver mGPDH activity; format: in vivo, rats (Sprague-Dawley); conditions: continuous infusion 1 mg/kg/day
Text: as §1, §2, §3, §4

[3] = Subacute study in normal rats, continuous infusion: heart weight; format: in vivo, rats (Sprague-Dawley); conditions: continuous infusion 1 mg/kg/day
Text: as §1, §3, §4

[4] = Subacute study in cholesterol-fed rats, IP: heart weight and heart mGPDH activity
Method: The cholesterol-fed rat is an animal model of hypercholesterolemia generated by feeding the animals a diet with high cholesterol content.
Serum cholesterol values were assessed and the animals randomized into groups for treatment.

[5] = Continuous infusion study in rats on a cholesterol-containing diet; format: in vivo; conditions: continuous infusion 1 mg/kg/day
Method: Screening for thyromimetic activity was performed in normal rats maintained on a cholesterol-containing diet. Compounds were administered by continuous infusion using an osmotic pump at 1 mg/kg/day.

liver triglycerides = assay: Hepatic triglyceride content in normal rats, chronic infusion; format: in vivo; conditions: normal rats chronically infused for 7 days
Method: Normal rats were chronically infused with Compound 7 for 7 days. Liver triglycerides were analyzed following lipid extraction by the Bligh Dyer method (Bligh E G and Dyer W J, A rapid method of total lipid extraction and purification. Can J Med. Sci. 1959 (August); 37(8):911-7, incorporated herein by reference). Total triglycerides were analyzed in the liver extracts by an enzymatic assay (Thermo Electron Corporation). Total lipid was normalized to initial liver weight and triglyceride content was normalized to liver weight. […] There was a 4% reduction in liver triglycerides for this group and the results were not statistically significant.

[6] = in the monkey; cited from earlier work
[7] = effects on cholesterol and TSH at the same or not pharmacologically different doses; cited from earlier work
[8] = rodent models and monkeys; cited from earlier work
human hepatoma cells = conditions: via thyroid hormone receptor activation; cited from earlier work
Glucose in ZDF rats = format: in vivo
Method: The decrease was dose dependent. Blood glucose levels at those doses corresponded to 442 mg/dL and 243 mg/dL, respectively. Similar changes were also evident at two weeks, post-treatment.

[9] = set-up: species or system rats; conditions: rat, in vivo
Method: The oral bioavailability (OBAV) of Compound 12-1, a bis POM prodrug of Compound 7, was estimated by comparison of the dose-normalized area under the curve (AUC) of the plasma concentration-time profile of Compound 7 following IV and PO administration of Compound 7 and Compound 12-1, respectively, to normal rats.
Method: Groups of non-fasted male SD rats were administered either 5 mg/kg of Compound 7 by IV bolus or 20 mg/kg of Compound 12-1 by oral gavage. Prior to drug administration, the rats were catheterized at the tail artery to facilitate blood collection. Plasma samples were obtained at pre-specified time points following dosing, extracted with 1.5 volumes of methanol, and then assayed by an LC-UV method using a C18 column eluted with a gradient of 20% to 45% v/v acetonitrile in a potassium phosphate buffer pH 6.2 over 15 min with UV absorbance monitoring at 280 nm. The AUC values were determined noncompartmentally from the plasma concentration-time plots by trapezoidal summation to the last measurable time point.
Plasma levels of compound were analyzed by HPLC and the AUCs for the i.v. dose of 5 mg/kg and the p.o. dose of 20 mg/kg were compared. The maximum OBAV for Compound 19-2 was 0.003%. Typically, compounds that are taken forward as an oral drug candidate have OBAV values of at least 15-20%, when tested in an animal model. This minimal requirement for OBAV in a genetically homogenous model system insures that exposure can be accurately monitored when humans are treated with the compound. Furthermore, in a genetically variable background such as humans, the variability for a compound with low OBAV in genetically homogenous model systems, can be widely variable, leading some subjects to have much higher than anticipated exposure, while other subjects have no exposure.

plasma cholesterol = assay: Cholesterol lowering in hypercholesterolemic rats; format: in vivo; conditions: Rattus norvegicus, po; delivered p.o. (0.5 mg/kg/d); percentage change from pre-dose cholesterol; read-out: % Cholesterol Lowering
[10] = Whole animal resting oxygen consumption; format: in vivo, Sprague Dawley rats
Method: Thermogenesis is a measurement of energy consumption. Compounds that increase thermogenesis are likely to increase caloric expenditure and thereby cause body weight loss and its associated benefits to metabolic status (e.g., insulin sensitivity). Thermogenesis is assessed in subcellular fractions of various tissues, isolated cells, whole tissues, or in whole animals using changes in oxygen consumption as the endpoint. Oxygen is used up when calories are burned by various metabolic processes. Methods: Animals are dosed once or several times a day via a parenteral or oral route for a treatment period ranging from 1 day to several weeks. Oxygen consumption is measured following a single or multiple days of treatment. In one assay, whole animal oxygen consumption is measured using an indirect calorimeter (Oxymax, Columbus Instruments, Columbus, Ohio). Animals are removed from their cages and placed in the chambers. The resting oxygen consumption is measured in animals during periods of inactivity as measured by activity monitors. The oxygen consumption is calculated based on the flow through the chamber and the difference in oxygen partial pressures at the inflow and outlet ports. Carbon dioxide (CO2) efflux is also measured in parallel using a CO2 electrode. […] Rats were placed in the FoxBox apparatus (Sable Systems, Las Vegas, Nev.), allowed to acclimate and the resting oxygen consumption was measured. The oxygen consumption rates were compared to pre-dose measurements taken on each individual animal. […] Thus, the compounds of the present invention are useful in increasing oxygen consumption.

[11] = Cardiovascular activity in the Sprague Dawley rat (HR, LV dP/dt, aortic pressure, heart weight); format: in vivo; conditions: SD rats, 7 days
Text: Method: […] The control group (n=6) was given vehicle only. […] On the 7th day after the start of dosing, animals were anesthetized with Isofluorane and the left ventricle cannulated with a high fidelity catheter tip transducer via the right carotid artery. Left ventricular pressure, its first derivative (LVdP/dt), lead I ECG, and heart rate (HR) triggered off the ECG waveform, were digitally recorded. LV dP/dt is a well accepted measure of ionotropic state. Systolic and diastolic aortic pressures were measured by retracting the catheter into the proximal aorta.

[12] = rat, in vivo, 28 days
Method: Compound 18 was administered at doses up to 5 mg/kg/d. Compound cis-13-1 was administered at doses up to 50 mg/kg/d. We reasoned that the ZDF rat, as a metabolically challenged animal model, would be more sensitive to the potential adverse cardiac effects of thyromimetics than a normal, cholesterol-fed rat. At sacrifice, heart rate, and the first derivative of left ventricular pressure (LV dP/dt) were measured with a Millar catheter inserted into the left ventricle.

Heart AUC [1]: 27.6 nmol·h/g | Kidney AUC [1]: 1.1 nmol·h/g | Liver AUC [1]: 48.5 nmol·h/g | AUC ([1]; male, SD, rat, plasma): 2800 ng·h/mL | Cmax ([1]; male, SD, rat, plasma): 3490 ng/mL | Tmax ([1]; male, SD, rat, plasma): 20 min | CL/F ([1]; male, SD, rat, plasma, read-out: Cl(observed)/F (converted)): 56 mL/min/kg | Vd/F ([1]; male, SD, rat, plasma, read-out: Vz(observed)/F): 2.2 L/kg | AUMClast ([1]; plasma): 1.7683 μg * hr^2/mL | Tlast ([1]; plasma): 2 h | Heart Weight [3]: 134% of control | Cardiac GPDH activity ([4]; IP, 1 mg/kg/day): increased | increase of LV dP/dt ([5]; end-of-life): 71% | left ventricular weight ([5]; end-of-life): increased
SMILES: Cc1cc(OCC(=O)O)cc(C)c1Cc1ccc(O)c(C(C)C)c1 [Compound 17, [3,5-dimethyl-4-(4′-hydroxy-3′-iso-propylbenzyl)phenoxy]acetic acid, reference compound]
doses that significantly decreased serum cholesterol (serum cholesterol): 0.1 to 1 mg/kg/day | Heart GPDH (heart mGPDH activity): 277% of control | Liver GPDH [2]: 426% of control | cardiac hypertrophy ([4]; IP once-a-day for seven days): cardiac hypertrophy was observed | increase of systolic and diastolic blood pressure [5]: 30% | cholesterol ([5]; day 7): significant decrease in cholesterol | increase of heart rate ([5]; day 7): 40% | cholesterol ([5]; day 14): no significant decrease in cholesterol was observed

SMILES: N[C@@H](Cc1ccc(Oc2cc(I)c(O)c(I)c2)c(I)c1)C(=O)O [Compound T3, 3,3′,5′-triiodothyronine, reference compound]
reduction in liver triglycerides (liver triglycerides): 4% | Heart GPDH (heart mGPDH activity): 284% of control | Liver GPDH [2]: 406% of control | Heart Weight [3]: 146% of control

SMILES: CC(C)c1cc(Oc2c(Cl)cc(CC(=O)O)cc2Cl)ccc1O [3,5-dichloro-4-[4-hydroxy-3-(1-methylethyl)phenoxy]benzeneacetic acid]
Lp(a) levels [6]: decrease Lp(a) levels | TSH levels [7]: dose-dependently lower | cholesterol levels [7]: dose-dependently lower | weight loss in animals [8]: weight loss

SMILES: Cc1cc(NC(=O)C(=O)O)cc(C)c1Oc1ccc(O)c(C(C)C)c1 [CGS23425, [[4-[4-hydroxy-3-(1-methylethyl)phenoxy]-3,5-dimethylphenyl]amino]oxo acetic acid]
apoAI expression (human hepatoma cells): increased apoAI expression

OBAV when AUC's of Compound cis-13-1 are used [9]: 25% | OBAV when comparing the AUC's of Compound 7 [9]: 40-50% | TI Improvement over Compound 18, ED15 HR ([12]; ZDF): >39 | TI Improvement over Compound 18, ED25 LV dP/dt ([12]; ZDF): >102 | calculated TI with respect to LV dP/dt [12]: > 10,000
SMILES: Cc1cc(OC[P@@]2(=O)OCC[C@@H](c3cccc(Cl)c3)O2)cc(C)c1Cc1ccc(O)c(C(C)C)c1 [Compound cis-13-1]
water consumption (Glucose in ZDF rats): dose-dependent decrease in the water consumption | Plasma glucose at sacrifice (Glucose in ZDF rats; 4 weeks of treatment, decreased from 618 mg/dL): 437 mg/dL | Blood glucose levels (Glucose in ZDF rats; 4 weeks of treatment, versus 442 mg/dL): 243 mg/dL | change in vivo at 0.5 mg/kg/day (plasma cholesterol): -31.8% | Oxygen consumption following treatment, % of the pre-dose rate ([10]; 3 mg/kg/d orally for 14 days): 116% | Oxygen consumption following treatment, % of the pre-dose rate ([10]; 10 mg/kg/d orally for 14 days): 125% | Oxygen consumption following treatment, % of the pre-dose rate ([10]; 30 mg/kg/d orally for 14 days): 132% | HR, LV dP/dt, systolic and diastolic aortic pressures ([11]; oral gavage 1, 5, 10, 30, 50 mg/kg/day): not significantly different compared to vehicle treated animals | heart weight or heart weight/body weight ratios ([11]; oral gavage 1-50 mg/kg/day): no significant changes in heart weight | calculated TI with respect to heart rate [12]: > 3900

From patent US20090028925A1, “Novel Phosphinic Acid-Containing Thyromimetics” (priority 2005, published 2009)
